Tests used:
[1] = system: immune cells in ascites; assay: Immune cell profiling (FACS) of ID8 ascites; type: in vivo, C57BL/6 mice
Method: (§1) Immune Profiling Assay—Immunophenotypic analyses of splenocytes and single cell suspensions from tumors were assessed by flow cytometry. Abs to stain for MDSCs were CD11b-APC (clone M1/70; BD Biosciences), Ly6G-FITC (clone 1A8; BD Biosciences) and Ly6C-PE (clone AL-21; BD Biosciences). For T-cell activation markers, cells were stained with Ab specific for CD4-PE-Cy7 (clone RM4-5; BD Biosciences), CD8-PE-Cy7 (clone 53-6.7; BD Biosciences), CD62L-PE (clone MEL-14; BD Biosciences) and CD44-FITC (clone IM7; Biolegend). Cells were incubated on ice for 30 min, washed and fixed in phosphate buffered saline (PBS) containing 1% formalin for flow cytometric analysis on an LSRII flow cytometer (BD Biosciences).
(§2) Immune cell profiling was conducted on ascites (N=3) and tumor tissue (N=3) by processing the samples by the following method and analyzed through Fluorescent Activated Cell Sorting (FACS), see Table 8. Cells were incubated for 30 minutes on ice, washed and fixed in phosphate buffered saline containing 1% formalin for flow cytometric analysis on an LSRII flow cytometer.

[2] = system: immune cells in tumor; assay: Immune cell profiling (FACS) of ID8 tumors; type: in vivo, C57BL/6 mice
Method: as §1, §2

KFAKFAKKFAKFAKKFAKQHWSYGLRPG [Phor18-LHRH]
increase of CD8+ T/Treg ratio [1]: 7 fold | Monocytic myeloid suppressor cells (mMDSC) ([1]; % of CD45+ cells, controls 0.62±0.08%): 0.21±0.01% | CD8+ T cells ([1]; % of CD45+ cells, controls 1.9±0.3%): 8.9±2.4% | B cells ([1]; % of CD45+ cells, controls 9.8±1.8%): 1.5±0.14% | Natural killer (NK) cells ([1]; % of CD45+ cells, controls 10.3±0.8%): 10.2±0.08% | Dendritic cells (DC) ([1]; % of CD45+ cells, controls 18.5±1.1%): 15.1±0.2% | Macrophages ([1]; % of CD45+ cells, controls 23.8±5.1%): 25.6±0.7% | CD45+ cell fraction of life cells ([1]; Mean±SEM, controls 10.5±1.8%): 15.6±2.1% | ratio of CD8+ T cells to regulatory T cells ([1]; controls 2.6±0.6): 17.32±4.1 | increase of CD8+ T/Treg ratio ([2]; tumor (tumor and ascites)): 8 fold | Regulatory T cells (Treg) ([2]; tumor, % of CD45+ cells, controls 1.14±0.09%): 0.95±0.15% | Monocytic myeloid suppressor cells (mMDSC) ([2]; tumor, % of CD45+ cells, controls 1.5±0.006%): 1.015±0.15% | Macrophages ([2]; tumor, % of CD45+ cells, controls 1.6±0.05%): 10.1±0.13% | Dendritic cells (DC) ([2]; tumor, % of CD45+ cells, controls 1.88±0.03%): 5.12±0.34% | CD8+ T cells ([2]; tumor, % of CD45+ cells, controls 2.6±0.4%): 15.5±0.8% | Natural killer (NK) cells ([2]; tumor, % of CD45+ cells, controls 3.76±[…]): 10.67±1.4% | B cells ([2]; tumor, % of CD45+ cells, controls 12.14±0.9%): 10.1±2.4% | CD45+ cell fraction of live cells ([2]; tumor, Mean±SEM, controls 8.16±[…]): 26.1±5.2% | ratio of CD8+ T cells to regulatory T cells ([2]; tumor, controls 2.27±0.26): 15.5±2.5

— patent US20240228542A1, “LYTIC DOMAIN FUSION CONSTRUCTS, CHECKPOINT INHIBITORS, AND METHODS OF MAKING AND USING SAME” (A28 Therapeutics Inc., priority 2020, published 2024)
